# Values of other authors in patent publication US20150275270A1, “COMPOSITIONS AND METHODS FOR THE ANALYSIS OF DEGRADED NUCLEIC ACIDS” (ALTHEADX, INC., priority 2005, published 2015).
# Conditions: clinical studies / post-marketing reports
row,SMILES,drug-induced hepatotoxicity (clinical reports)
1,"Cc1c(C)c2c(c(C)c1O)CCC(C)(COc1ccc(CC3SC(=O)NC3=O)cc1)O2 (stereo not drawn) [Troglitazone, troglitazone]",severe idiosyncratic hepatocellular injury
2,CCc1ccc(CCOc2ccc(CC3SC(=O)NC3=O)cc2)nc1 (stereo not drawn) [pioglitazone],no evidence of drug-induced hepatotoxicity
3,CN(CCOc1ccc(CC2SC(=O)NC2=O)cc1)c1ccccn1 (stereo not drawn) [rosiglitazone],no evidence of drug-induced hepatotoxicity
